From patent publication US20140023611A1 (priority 2010, published 2014) come the findings set out here.

This experiment has as its target T1, rat NaP2b (SLC34A2) (Rattus norvegicus, UniProt Q9JJ09).
T1 construct: host or cells: HEK293
T1 sequence (Q9JJ09 1-695): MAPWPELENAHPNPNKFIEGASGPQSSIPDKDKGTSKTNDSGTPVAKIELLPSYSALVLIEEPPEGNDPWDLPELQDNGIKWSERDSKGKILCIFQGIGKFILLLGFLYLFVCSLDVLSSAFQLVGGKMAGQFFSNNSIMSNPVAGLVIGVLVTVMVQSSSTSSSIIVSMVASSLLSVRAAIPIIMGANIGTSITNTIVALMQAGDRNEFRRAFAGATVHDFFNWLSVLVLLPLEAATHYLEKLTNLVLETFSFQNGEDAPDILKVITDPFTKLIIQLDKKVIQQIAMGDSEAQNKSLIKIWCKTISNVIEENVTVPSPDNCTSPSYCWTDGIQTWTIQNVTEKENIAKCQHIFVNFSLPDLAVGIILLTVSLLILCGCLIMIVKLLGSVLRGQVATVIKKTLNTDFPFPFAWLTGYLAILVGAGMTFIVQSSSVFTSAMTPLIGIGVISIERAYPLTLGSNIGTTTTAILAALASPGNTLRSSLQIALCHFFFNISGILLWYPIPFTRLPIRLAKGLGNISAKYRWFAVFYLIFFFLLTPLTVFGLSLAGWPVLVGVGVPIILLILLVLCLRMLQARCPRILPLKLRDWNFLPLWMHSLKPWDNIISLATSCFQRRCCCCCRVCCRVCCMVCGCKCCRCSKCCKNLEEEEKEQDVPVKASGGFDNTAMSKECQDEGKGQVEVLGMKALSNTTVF
The experiment is described as follows: Inhibition of NaP2b-mediated Pi (33P) uptake in transfected HEK293 cells, rat NaP2b. The class given is cell-based. The following applies: 33P Pi uptake, 0.1 mM phosphate, value given as pIC50 range. In outline: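 The cells transiently expressed NaP2b after Lipofectamine transfection. Each compound was run in duplicate over twelve concentrations, 0.1 nM–30 uM.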
With `CN(CCN1CCOCC1)C(=O)Nc1cccc(C(=O)Nc2ccc(N3CCCCC3)cc2-c2cc(C(=O)N[C@H]3CCCc4ccccc43)ccn2)c1` [Example 245, (S)-2-(2-(3-(3-methyl-3-(2-morpholinoethyl)ureido)benzamido)-5-(piperidin-1-yl)phenyl)-N-(1,2,3,4-tetrahydronaphthalen-1-yl)isonicotinamide], the IC50 was 10000 to 31600 nM. For the compound `CCN(CC)c1ccc(NC(=O)c2cccc(CCCOCCOCCOCCOCCC(=O)N3CCN(CCOCCOCCOCCOCCOCCOCCOC)C(=O)C3)c2)c(-c2cc(C(=O)NCc3cccc(C(F)(F)F)c3)ccn2)c1` [Example 258, 2-(2-(3-(16-(4-(2,5,8,11,14,17,20-heptaoxadocosan-22-yl)-3-oxopiperazin-1-yl)-16-oxo-4,7,10,13-tetraoxahexadecyl)benzamido)-5-(diethylamino)phenyl)-N-(3-(trifluoromethyl)benzyl)isonicotinamide], the IC50 is 1000 to 7940 nM. `CCN(CC)c1ccc(NC(=O)c2cccc(CCCOCCOCCOCCOCCC(=O)N(C)CCOCCOCCOCCOCCOCCOCCOC)c2)c(-c2cc(C(=O)NCc3cccc(C(F)(F)F)c3)ccn2)c1` [Example 259, 2-(5-(diethylamino)-2-(3-(23-methyl-24-oxo-2,5,8,11,14,17,20,27,30,33,36-undecaoxa-23-azanonatriacontan-39-yl)benzamido)phenyl)-N-(3-(trifluoromethyl)benzyl)isonicotinamide] showed a 50% inhibitory concentration (IC50) of 1000 to 7940 nM.

Regarding `CCN(CC)c1ccc(NC(=O)c2cccc(CCCOCCOCCOCCOCCC(=O)NCCOCCOCCOCCOCCOCCOCCOC)c2)c(-c2cc(C(=O)NCc3cccc(C(F)(F)F)c3)ccn2)c1` [Example 260, 2-(5-(diethylamino)-2-(3-(24-oxo-2,5,8,11,17,20,27,30,33,36-undecaoxa-23-azanonatriacontan-39-yl)benzamido)phenyl)-N-(3-(trifluoromethyl)benzyl)isonicotinamide], the IC50 is 1000 to 7940 nM. On to `CCN(CC)c1ccc(NC(=O)c2cccc(CCCOCCOCCOCCOCCN)c2)c(-c2cc(C(=O)NCc3cccc(C(F)(F)F)c3)ccn2)c1` [Example 270, 2-(2-(3-(1-amino-3,6,9,12-tetraoxapentadecan-15-yl)benzamido)-5-(diethylamino)phenyl)-N-(3-(trifluoromethyl)benzyl)isonicotinamide], for which the IC50 is 1000 to 7940 nM.

`CCN(CC)c1ccc(NC(=O)c2cccc(CCCOCCOCCOCCOCCNS(=O)(=O)c3ccc(C(=O)N(C)CCOCCOCCOCCOCCOCCOCCOC)cc3)c2)c(-c2cc(C(=O)NCc3cccc(C(F)(F)F)c3)ccn2)c1` [Example 287, 2-(2-(3-(1-(4-(2,5,8,11,14,17,20-heptaoxadocosan-22-yl(methyl)carbamoyl)phenylsulfonamido)-3,6,9,12-tetraoxapentadecan-15-yl)benzamido)-5-(diethylamino)phenyl)-N-(3-(trifluoromethyl)benzyl)isonicotinamide] gave an IC50 of 1000 to 7940 nM. Compound `CCN(CC)c1ccc(NC(=O)c2cccc(CCCOCCOCCOCCOCCNS(=O)(=O)c3ccc(C(=O)N4CCN(CCOCCOCCOCCOCCOCCOCCOC)C(=O)C4)cc3)c2)c(-c2cc(C(=O)NCc3cccc(C(F)(F)F)c3)ccn2)c1` [Example 288, 2-(2-(3-(1-(4-(4-(2,5,8,11,14,17,20-heptaoxadocosan-22-yl)-3-oxopiperazine-1-carbonyl)phenylsulfonamido)-3,6,9,12-tetraoxapentadecan-15-yl)benzamido)-5-(diethylamino)phenyl)-N-(3-(trifluoromethyl)benzyl)isonicotinamide] had a concentration for half-maximal inhibition (IC50) of 1000 to 7940 nM. Regarding `CCN(CC)c1ccc(NC(=O)c2cccc(CCCOCCOCCOCCOCCNS(=O)(=O)c3ccc(CCC(=O)N(CCOC)CCOCCOCCOCCOCCOCCOCCOC)cc3)c2)c(-c2cc(C(=O)NCc3cccc(C(F)(F)F)c3)ccn2)c1` [Example 295, 2-(5-(diethylamino)-2-(3-(1-(4-(23-(2-methoxyethyl)-24-oxo-2,5,8,11,14,17,20-heptaoxa-23-azahexacosan-26-yl)phenylsulfonamido)-3,6,9,12-tetraoxapentadecan-15-yl)benzamido)phenyl)-N-(3-(trifluoromethyl)benzyl)isonicotinamide], the half-inhibitory concentration (IC50) is 1000 to 7940 nM. Compound `CCN(CC)c1ccc(NC(=O)c2cccc(CCCOCCOCCOCCOCCNS(=O)(=O)c3ccc(CCC(=O)NCCOCCOCCOCCOCCOCCOCCOC)cc3)c2)c(-c2cc(C(=O)NCc3cccc(C(F)(F)F)c3)ccn2)c1` [Example 296, 2-(5-(diethylamino)-2-(3-(1-(4-(24-oxo-2,5,8,11,14,17,20-heptaoxa-23-azahexacosan-26-yl)phenylsulfonamido)-3,6,9,12-tetraoxapentadecan-15-yl)benzamido)phenyl)-N-(3-(trifluoromethyl)benzyl)isonicotinamide] gave an IC50 of 1000 to 7940 nM.

As to `CCN(CC)c1ccc(NC(=O)c2cccc(CCCOCCOCCOCCOCCNS(=O)(=O)c3ccc(CCC(=O)O)cc3)c2)c(-c2cc(C(=O)N[C@H]3CCCc4ccccc43)ccn2)c1` [Example 320], the IC50 is < 1000 nM. The compound `CCN(CC)c1ccc(NC(=O)c2cccc(CCCOCCOCCOCCOCCNC(=O)C34CC5CC(CC(C5)C3)C4)c2)c(-c2cc(C(=O)N[C@H]3CCCc4ccccc43)ccn2)c1` [Example 322] showed an IC50 of 1000 to 7940 nM.

In the case of `CCN(CC)c1ccc(NC(=O)c2cccc(CCCOCCOCCOCCOCCNC(=O)c3cc[nH]n3)c2)c(-c2cc(C(=O)N[C@H]3CCCc4ccccc43)ccn2)c1` [Example 323], the IC50 was < 1000 nM. As for `CCN(CC)c1ccc(NC(=O)c2cccc(CCCOCCOCCOCCOCCNC(=O)c3cccnc3)c2)c(-c2cc(C(=O)N[C@H]3CCCc4ccccc43)ccn2)c1` [Example 324], the half-inhibitory concentration (IC50) was < 1000 nM. On to `CCN(CC)c1ccc(NC(=O)c2cccc(CCCOCCOCCOCCOCCNC(=O)c3ccc(O)cc3)c2)c(-c2cc(C(=O)N[C@H]3CCCc4ccccc43)ccn2)c1` [Example 325], for which the 50% inhibitory concentration (IC50) was < 1000 nM.

As for `CCN(CC)c1ccc(NC(=O)c2cccc(CCCOCCOCCOCCOCCNC(=O)c3cscn3)c2)c(-c2cc(C(=O)N[C@H]3CCCc4ccccc43)ccn2)c1` [Example 326], the IC50 is < 1000 nM. `CN(CCOCCOCCOCCC(=O)OC(C)(C)C)CCN(C)C(=O)c1cccc(C(=O)Nc2ccc(N3CCCCC3)cc2-c2cc(C(=O)N[C@H]3CCCc4ccccc43)ccn2)c1` [Example 329, tert-butyl 3-methyl-1-[N-methyl-1-(3-{[4-(piperidin-1-yl)-2-(4-{[(1S)-1,2,3,4-tetrahydronaphthalen-1-yl]carbamoyl}pyridin-2-yl)phenyl]carbamoyl}phenyl)formamido]-6,9,12-trioxa-3-azapentadecan-15-oate] gave an IC50 of 1000 to 7940 nM.

Take `CCN(CC)c1ccc(NC(=O)c2cccc(CCCOCCOCCOCC[N+](CC)(CC)CC)c2)c(-c2cc(C(=O)NCc3cccc(C(F)(F)F)c3)ccn2)c1` [Example 330, 2-(2-(2-(3-(3-(4-(diethylamino)-2-(4-(3-(trifluoromethyl)benzylcarbamoyl)pyridin-2-yl)phenylcarbamoyl)phenyl)propoxy)ethoxy)ethoxy)-N,N,N-triethylethanaminium]: the IC50 was 1000 to 7940 nM.

Take `CCN(CC)c1ccc(NC(=O)c2ccc(CCCOCCOCCOCC[N+]34CCC(CC3)CC4)cc2)c(-c2cc(C(=O)NCc3cccc(C(F)(F)F)c3)ccn2)c1` [Example 331, 1-(2-(2-(2-(3-(4-(4-(diethylamino)-2-(4-(3-(trifluoromethyl)benzylcarbamoyl)pyridin-2-yl)phenylcarbamoyl)phenyl)propoxy)ethoxy)ethoxy)ethyl)-1-azonia-bicyclo[2.2.2]octane]: the “pIC50 range for rat Nap2b” value is on record as 5.1-6.0.

The compound `COCCOCCOCCOCCOCCOCCOCCN(C)C(=O)C1CCN(CCN(C)C(=O)c2cccc(C(=O)Nc3ccc(N4CCCCC4)cc3-c3cc(C(=O)N[C@H]4CCCc5ccccc54)ccn3)c2)CC1` [Example 334, (S)—N^1-(2-(4-(2,5,8,11,14,17,20-Heptaoxadocosan-22-yl(methyl)carbamoyl)piperidin-1-yl)ethyl)-N1-methyl-N3-(4-(piperidin-1-yl)-2-(4-(1,2,3,4-tetrahydronaphthalen-1-ylcarbamoyl)pyridin-2-yl)phenyl)isophthalamide] gave an IC50 of 10000 to 31600 nM.

The compound `CCN(CC)c1ccc(NC(=O)c2cccc(C(=O)N(C)CCN(C)CCOCCOCCOCCNC(C)=O)c2)c(-c2cc(C(=O)N[C@H]3CCCc4ccccc43)ccn2)c1` [Example 341, (S)—N^1-(4-(Diethylamino)-2-(4-(1,2,3,4-tetrahydronaphthalen-1-ylcarbamoyl)pyridin-2-yl)phenyl)-N^3-methyl-N^3-(3-methyl-16-oxo-6,9,12-trioxa-3,15-diazaheptadecyl)isophthalamide] had an IC50 of 1000 to 7940 nM. `CCN(CC)c1ccc(NC(=O)c2cccc(C(=O)N(C)CCN(C)CCOCCOCCOCCNC(=O)c3cccnc3)c2)c(-c2cc(C(=O)N[C@H]3CCCc4ccccc43)ccn2)c1` [Example 342, (S)—N^1-(4-(Diethylamino)-2-(4-(1,2,3,4-tetrahydronaphthalen-1-ylcarbamoyl)pyridin-2-yl)phenyl)-N^3-methyl-N^3-(14-methyl-1-oxo-1-(pyridin-3-yl)-5,8,11-trioxa-2,14-diazahexadecan-16-yl)isophthalamide] gave a 50% inhibitory concentration (IC50) of 1000 to 7940 nM.

As usually defined, the IC50 is the midpoint of a concentration-inhibition curve. A lower IC50 goes with greater potency in that assay.
